Key:
Settings in all cases: Hela microsomes 100 μg, 14C-acyl-CoA, NADH (FIG. 3)
[1] = system: mSCD4; assay: Δ9-desaturase activity in microsomes of Hela cells over-expressing mSCD4; assay type: biochemical, mouse
Description: (§1) HeLa cells were cultured at 37° C. in a humidified 5% CO2 atmosphere in Dulbecco's modified Eagle's medium supplemented with 10% (v/v) fetal bovine serum and penicillin/streptomycin. The cells were resuspended in cytomix buffer (120 mM KCl, 0.15 mM CaCl2, 25 mM Hepes/KOH, pH 7.6, 2 mM EGTA, 5 mM MgCl2), and 400 μl of suspension was transferred to a 0.4-cm electroporation cuvette (Invitrogen). 35 μg of pcDNA3 DNA harboring either human or mouse SCD constructs were transfected into Hela cells which have very low Δ9-desaturase activity. DNA was added to the cell suspension in the cuvette and mixed well. The mixture was then exposed to a single electric pulse of 300 V with a capacitance of 1000 microfarads using an Invitrogen pulse system. The cells were allowed to recover in culture medium at 37° C. (5% CO2 atmosphere) for 48 h before harvesting and performing SCD activity assays.
(§2) Δ9-desaturase activity: Microsomes were purified from Hela cells by differential centrifugation and resuspended in a 0.1 M potassium phosphate buffer (pH 6.8). Δ9-desaturase activity was assayed at 25° C. for 7 minutes with either [^14C] stearoyl-CoA or [^14C] palmito-CoA, 2 mM NADH, and 100 μg microsomal protein (Miyazaki, M. et al. (2001) J Biol Chem 276, 39455-39461).

[2] = target: T1, hSCD5 (Homo sapiens, UniProt Q86SK9); assay: Δ9-desaturase activity in microsomes of Hela cells over-expressing hSCD5; assay type: biochemical; design: Cloning of the full-length human and mouse SCD cDNAs: The full coding region of human SCDs; expressed in transfected cells
T1 sequence (Q86SK9 1-330): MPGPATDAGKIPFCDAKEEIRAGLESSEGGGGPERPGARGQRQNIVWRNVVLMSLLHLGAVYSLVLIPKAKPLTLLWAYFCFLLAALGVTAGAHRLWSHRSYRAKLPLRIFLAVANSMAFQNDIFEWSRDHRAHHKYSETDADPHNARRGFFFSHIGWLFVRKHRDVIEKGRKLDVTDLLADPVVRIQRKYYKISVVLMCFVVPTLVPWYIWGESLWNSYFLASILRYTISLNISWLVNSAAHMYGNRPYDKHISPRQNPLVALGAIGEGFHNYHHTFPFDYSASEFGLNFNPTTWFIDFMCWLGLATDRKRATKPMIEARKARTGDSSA
Description: as §1, §2

[3] = target: T2, hSCD1 (Homo sapiens, UniProt O00767); assay: Δ9-desaturase activity in microsomes of Hela cells over-expressing hSCD1; assay type: biochemical; design: Cloning of the full-length human and mouse SCD cDNAs: The full coding region of human SCDs; expressed in transfected cells
T2 sequence (O00767 1-359): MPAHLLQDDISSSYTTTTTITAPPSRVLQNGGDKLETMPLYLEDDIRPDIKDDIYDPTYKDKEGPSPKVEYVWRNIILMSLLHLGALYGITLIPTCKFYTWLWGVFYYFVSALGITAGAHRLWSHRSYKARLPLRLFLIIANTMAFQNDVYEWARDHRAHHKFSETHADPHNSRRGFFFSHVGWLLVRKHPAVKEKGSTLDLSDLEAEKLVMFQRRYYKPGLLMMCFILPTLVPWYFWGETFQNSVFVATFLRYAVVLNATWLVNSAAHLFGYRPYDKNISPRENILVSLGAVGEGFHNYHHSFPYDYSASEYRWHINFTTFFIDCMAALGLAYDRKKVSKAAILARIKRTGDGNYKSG
Description: as §1, §2

[4] = target: T3, mSCD1 (Mus musculus, UniProt P13516); assay: Δ9-desaturase activity in microsomes of Hela cells over-expressing mSCD1; assay type: biochemical
T3 sequence (P13516 1-355): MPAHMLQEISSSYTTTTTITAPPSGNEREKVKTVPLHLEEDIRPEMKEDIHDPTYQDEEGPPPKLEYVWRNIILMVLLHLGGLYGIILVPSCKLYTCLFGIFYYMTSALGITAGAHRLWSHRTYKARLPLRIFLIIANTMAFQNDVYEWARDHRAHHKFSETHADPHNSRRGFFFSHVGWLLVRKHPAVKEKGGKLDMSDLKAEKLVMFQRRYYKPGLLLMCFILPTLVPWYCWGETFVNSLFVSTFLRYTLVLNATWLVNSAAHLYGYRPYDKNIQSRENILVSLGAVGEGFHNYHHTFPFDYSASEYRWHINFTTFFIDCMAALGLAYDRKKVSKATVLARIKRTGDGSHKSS
Description: as §1, §2

[5] = target: T4, mSCD2 (Mus musculus, UniProt P13011); assay: Δ9-desaturase activity in microsomes of Hela cells over-expressing mSCD2; assay type: biochemical
T4 sequence (P13011 1-358): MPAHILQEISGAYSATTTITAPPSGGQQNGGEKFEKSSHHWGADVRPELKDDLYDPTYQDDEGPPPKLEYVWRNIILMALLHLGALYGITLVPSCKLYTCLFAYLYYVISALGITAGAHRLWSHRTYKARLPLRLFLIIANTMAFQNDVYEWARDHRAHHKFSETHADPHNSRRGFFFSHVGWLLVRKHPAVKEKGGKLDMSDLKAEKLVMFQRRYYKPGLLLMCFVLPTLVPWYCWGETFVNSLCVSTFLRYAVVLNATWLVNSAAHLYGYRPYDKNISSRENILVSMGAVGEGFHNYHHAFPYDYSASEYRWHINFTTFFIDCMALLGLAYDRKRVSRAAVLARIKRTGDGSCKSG
Description: as §1, §2

With `CCCCCCCCCCCCCCCCCC(=O)SCCNC(=O)CCNC(=O)[C@H](O)C(C)(C)COP(=O)(O)OP(=O)(O)OC[C@H]1O[C@@H](n2cnc3c(N)ncnc32)[C@H](O)[C@@H]1OP(=O)(O)O` [18:0-CoA, stearoyl-CoA] the “Δ9-desaturase activity towards 18:0-CoA relative to 16:0-CoA” value [1] was 2.0 fold, the “utilization of 18:0-CoA relative to 16:0-CoA” value [2] was 6 fold and the “Δ9-desaturase activity towards 18:0-CoA relative to 16:0-CoA” value [3] was 2.2 fold. For the same compound, the “Δ9-desaturase activity towards 18:0-CoA relative to 16:0-CoA” value [4] was 2.2 fold and the “Δ9-desaturase activity towards 18:0-CoA relative to 16:0-CoA” value [5] was 1.6 fold.

Source: US20060281071A1, “Stearoyl-CoA desaturase assay” (priority 2005, published 2006)
